In patent publication US20240139185A1, “COMPOUNDS THAT PARTICIPATE IN COOPERATIVE BINDING AND USES THEREOF” (Revolution Medicines, Inc., priority 2018, published 2024) one finds Kd, EC50 and IC50 data, which are given here for twelve molecules.

Each structure is given as a SMILES string. pEC50, pIC50, pKd: −log10 of the molar value.

Experiment [1] has as its target cyclophilin A (CYPA) (Homo sapiens, UniProt P62937). The experiment in a line: CYPA-compound binary complex formation by SPR. The settings on record: read-out: CYPA Binding Affinity. How it is done:
In order to determine the affinity of compounds of the invention for cyclophilin A (CYPA), we employed surface plasmon resonance binding analysis using the following reagents, instruments and protocol as supplied by the instrument manufacturer.
Reagents and Instrument • 1. Instrument: Biacore S200 (GE Healthcare Life Sciences) • 2. Running buffer: 1×HBS-P+ (1×HBS supplemented with 0.05% Tween20), pH7.4, and 2% DMSO. • 3. Ligand: CypA-Avi • 4. Analyte: Serial dilution of WDB compounds from 50 μM to 0 μM, 2-fold dilution, 10 points (10 mM stock concentration). • 5. Sensor kit: Biotin CAPture Kit (BR28-9202-34, GE Healthcare Life Sciences) • 6. Regeneration buffer: 1 volume of 1 M NaOH and 3 volumes of 8 M guanidine hydrochloride (supplied with CAPture Kit, BR28-9202-34, GE Healthcare Life Sciences)
Experimental Procedure • 1. Capture of CAPreagent: 2 μl/min for 60 seconds. • 2. Immobilization of ligand CypA: Use Fc1 as the reference cell; immobilize CypA at 4 μg/ml using 5 μl/min flowrate on Fc2 (60s), Fc3 (80s) and Fc4 (80s), respectively. • 3. Binding of analytes: Inject WDB compound dilutions sequentially at 50 μl/min for association of 60 seconds. And then let it dissociates in buffer at 50 μl/min for 60 seconds. • 4. Regeneration: 2 injections of regeneration buffer at 30 μl/min for 60 seconds to regenerate the chip surface. • 5. Solvent correction: Run solvent correction at beginning and the end of the run. If run more than 6 compounds, add additional solvent correction every 6 compounds. • 6. Data fitting with built-in Biacore Evaluation Software: Steady-state fitting.
(SPR reads the build-up and loss of mass on a sensor chip optically.)

The target in experiment [2] is T1, BRAF-GTP-KRAS-G12C complex (Homo sapiens, UniProt P01116+P62937, G12C).
T1 construct: 50 nM of His6-KRas G12C-GTP (1-169); 500 nM of tagless CypA (1-165)
The experiment in a line: KRAS-BRAF complex disruption through competition with CYPA-compound by TR-FRET. The settings on record: biochemical BRAF-KRAS G12C-GTP disruption assay EC50, with CYPA. How it is done:
In this example, TR-FRET was used to measure the compound-facilitated disruption of a KRAS-BRAF complex. A mixture of tagless Cyclophilin A, His6-KRAS G12C-GMP-PNP, and GST-BRAF RAS binding domain was added to a 384-well assay plate containing compounds of the invention and incubated for 3 hours. A mixture of Anti-His Eu-W1024 and anti-GST allophycocyanin was then added and the reaction was incubated for an additional 1.5 hours. TR-FRET signal was read on an EnVision microplate reader (Perkin Elmer, Ex 320 nm, Em 665/615 nm). Compounds that facilitate disruption of a KRAS_BRAF complex were identified as those eliciting a decrease in the TR-FRET ratio relative to DMSO control wells. To determine the presenter-dependence of the compound-mediated KRAS-BRAF complex disruption, Cyclophilin A was left out of the initial incubation (see Table 5). To determine G12C specificity of the compound-mediated KRAS-BRAF complex disruption, wild-type KRAS was used instead of G12C KRAS (see Table 5).
Reagents and Instrument • Tagless CYPA; 519 μM in PBS buffer, pH 7.4 • GST BRAF; 110 μM in PBS buffer, pH 7.4 • His6-KRASG12C-GMP-PNP; 50 μM in PBS buffer, pH 7.4 • His6-KRASWT-GMP-PNP; 40 μM in PBS buffer, pH 7.4 • Anti-His Eu-W1024 (LANCE® Eu-W1024; Perkin Elmer) • Anti-GST allophycocyanin (Anti-GST IgG conjugated to SureLight®-Allophycocyanin; Perkin Elmer; Product Number AD0059G) • Test compounds, 10 mM in 100% DMSO • EnVision (Perkin Elmer) • Combi MultiDrop liquid dispenser with 8-channel small volume cassette • 384-well ProxiPlate (black)
Experimental Protocol • 1. Use Mosquito to dispense 100 nL/well of compounds (varying concentration in […]) into 384-well black ProxiPlate to make assay-ready-plate (ARP). • 2. Make assay buffer containing 25 mM Hepes pH 7.3, 100 mM NaCl, 5 mM MgCl2, 0.05% BSA, and 0.002% Tween-20. • 3. Make PRE-MIX A: delivers final concentrations of 50 nM of His6-KRas G12C-GTP (1-169) and 500 nM of tagless CypA (1-165) in assay buffer. • a. For presenter dependence experiments, omit addition of tagless CypA • b. For G12C/wt specificity experiments, substitute His6-KRas WT-GTP (1-169) for His6-KRas G12C-GTP (1-169) • 4. Use MultiDrop Combi to dispense PRE-MIX A into ARP, 7 μl/well. Incubate 3 hr at room temperature. • 5. Make PRE-MIX B: delivers final concentrations of 10 nM of anti-His Eu-W1024 and 50 nM of anti-GST APC. • 6. Use MultiDrop Combi to dispense PRE-MIX B into ARP, 3 μl/well. Shake briefly on Combi and incubate 1.5 hr at room temperature. • 7. Read on EnVision (Ex: 320 nm; Em1: 615 nm; Em2: 665 nm). • 8. Data is processed using Dotmatics. Curves are fit using a 4-parameter non-linear fit to determine the EC50 value for formation of the ternary complex.

Experiment [3] has as its system pERK in H358 cells. Description: pERK inhibition in H358 cells. It counts as cell-based, human. The settings on record: 4 hours treatment, read-out: Cellular pERK inhibition. How it is done: H358 cells (5500 cells) derived from a human lung cancer were plated in a 96 well plate in media (100 uL, RPMI with 10% FBS). After 24 hours, cells were treated for 4 hours with compound or DMSO. Cells were washed twice with room temperature TBS (200 uL) and fixed for 20 minutes with 4% paraformaldehyde diluted with TBS (150 uL). Cells were washed four times for five minutes with 0.1% TritonX/TBS (150 uL) to permeabilize the membrane. Cells were incubated with TBS blocking buffer (100 uL) at room temperature for 60 minutes. Primary antibody (Phospho-p44/42 MAPK (Erk1/2) (Thr202/Tyr204) (D13.14.4E) XP® Rabbit mAb #4370, Cell Signaling Technology; 1:200) was added, and the cells were incubated overnight at 4 C. The cells were washed four times for five minutes with 0.1% Tween 20/TBS (150 uL). Secondary antibody (IRDye® 800CW Goat-Anti-Rabbit IgG, Li-Cor Biosciences; 1:1000) and DRAQ5™ (Invitrogen; 1:2000) was added, and the cells were incubated for 1 hour at room temperature. The cells were washed four times for five minutes with 0.1% Tween 20/TBS (150 uL) and scanned using the LICOR (700 and 800 nm).

With `CC(C)C(C(=O)NC1Cc2cc(O)cc(c2)-c2ccc3c(C(C)(C)C#N)cn(c3c2)CC(CF)COC(=O)C2CCCN(N2)C1=O)N(C)C(=O)C1CN(C(=O)CCl)C1` (mixture of isomers) [Compound 34], in experiment [1], the pKd is 4.82 to 5.30. The pEC50 (as a rule, the negative decadic logarithm of the EC50, by convention in mol/L) in experiment [2] is not below 6.30. Moreover, the pIC50 in experiment [3] was 5.00 to 6.00.
On the same counts, the results for `CC1COC(=O)C2CCCN(N2)C(=O)C(NC(=O)C(C(C)C)N(C)C(=O)C2CN(C(=O)CCl)C2)Cc2cc(O)cc(c2)-c2ccc3c4c(n(c3c2)C1)COCC4(C)C#N` (mixture of isomers) [Compound 62] are 4.82 to 5.30, not below 6.30 and not below 6.00.
The like results for `CC1COC(=O)C2CCCN(N2)C(=O)C(NC(=O)C(C(C)C)N(C)C(=O)C2CN(C(=O)CCl)C2)Cc2cc(O)cc(c2)-c2ccc3c4c(n(c3c2)C1)CCC4C#N` (mixture of isomers) [Compound 74] were, in that order, not below 5.30, not below 6.30 and 5.00 to 6.00.
The like results for `CC1COC(=O)C2CCCN(N2)C(=O)C(NC(=O)C(C(C)C)N(C)C(=O)C2CN(C(=O)CCl)C2)Cc2cc(O)cc(c2)-c2ccc3c(c2)N(C1)CC3(C)C#N` (mixture of isomers) [Compound 224] were, in that order, not below 5.30, not below 6.30 and 5.00 to 6.00.
In the case of `CC1COC(=O)C2CCCN(N2)C(=O)C(NC(=O)C(C(C)C)N(C)C(=O)C2CN(C(=O)CCl)C2)Cc2cc(O)cc(c2)-c2ccc3c(c2)N(C1)CC3(C)CCC#N` (mixture of isomers) [Compound 225], in experiment [1], the pKd was not below 5.30. Moreover, the pEC50 in experiment [2] was not below 6.30. For the same molecule, the pIC50 in experiment [3] was 5.00 to 6.00.
Regarding `CC(C)[C@@H](C(=O)N[C@H]1Cc2cc(O)cc(c2)-c2ccc3c(C(C)(C)C#N)cn(c3c2)CC(CO)COC(=O)[C@@H]2CCCN(N2)C1=O)N(C)C(=O)C1CN(C(=O)CCl)C1` (single isomer, unassigned) [Compound 21], the pKd in experiment [1] is less than 4.82. In addition, the pEC50 in experiment [2] is 5.30 to 6.30. The pIC50 in experiment [3] was less than 5.00.
In the case of `CC(C)[C@@H](C(=O)N[C@H]1Cc2cc(O)cc(c2)-c2ccc3c(C(C)(C)C#N)cn(c3c2)CC(CO)COC(=O)[C@@H]2CCCN(N2)C1=O)N(C)C(=O)C1CN(C(=O)CCl)C1` (single isomer, unassigned) [Compound 22], the pKd in experiment [1] is 4.82 to 5.30. Besides, the pEC50 in experiment [2] was not below 6.30. The pIC50 in experiment [3] was less than 5.00.
The like results for `COCC1COC(=O)C2CCCN(N2)C(=O)C(NC(=O)C(C(C)C)N(C)C(=O)C2CN(C(=O)CCl)C2)Cc2cc(O)cc(c2)-c2ccc3c(C(C)(C)C#N)cn(c3c2)C1` (single isomer, unassigned) [Compound 24] were, in that order, 4.82 to 5.30, not below 6.30 and not below 6.00.
Consider `CC(C)C(C(=O)NC1Cc2cc(O)cc(c2)-c2ccc3c(C(C)(C)C#N)cn(c3c2)CC(F)COC(=O)C2CCCN(N2)C1=O)N(C)C(=O)C1CN(C(=O)CCl)C1` (single isomer, unassigned) [Compound 25], for which the pKd in experiment [1] is 4.82 to 5.30. Moreover, the pEC50 in experiment [2] was not below 6.30. In addition, the pIC50 in experiment [3] was less than 5.00.
On the same counts, the results for `CC(C)C(C(=O)NC1Cc2cc(O)cc(c2)-c2ccc3c(C(C)(C)C#N)cn(c3c2)CC(C(F)F)COC(=O)C2CCCN(N2)C1=O)N(C)C(=O)C1CN(C(=O)CCl)C1` (single isomer, unassigned) [Compound 36] are 4.82 to 5.30, not below 6.30 and 5.00 to 6.00.
The like results for `CC(C)[C@@H](C(=O)N[C@H]1Cc2cc(O)cc(c2)-c2ccc3c(C(C)(C)C#N)cn(c3c2)CC(C(F)F)COC(=O)[C@@H]2CCCN(N2)C1=O)N(C)C(=O)C1CN(C(=O)CCl)C1` (single isomer, unassigned) [Compound 37] were, in that order, 4.82 to 5.30, not below 6.30 and 5.00 to 6.00.
The like results for `CC(C)C(C(=O)NC1Cc2cc(O)cc(c2)-c2ccc3c(C(C)(C)C#N)cn(c3c2)CC(Cl)COC(=O)C2CCCN(N2)C1=O)N(C)C(=O)C1CN(C(=O)CCl)C1` (single isomer, unassigned) [Compound 41] were, in that order, not below 5.30, not below 6.30 and 5.00 to 6.00.
